Assay results published in patent US20250353891A1 (MEDIMMUNE LIMITED, priority 2022, published 2025).
Several values for one entry are separate records, joined by “and”; a condition that tells them apart may be missing. Equal values may be shown once. Blank lines part the entries; values can stand above or below the molecule they belong to. Starred links: 1 amine or outer side, 2 acyl side, 3 side chain; linkers in the order of their positions; H or OH if unused. Non-standard residues stand in square brackets, D forms with d. Residues, ends and D or L forms follow the SMILES beside them. Groups on a side chain read outwards from the residue. *: point of attachment. Dip = N[C@H](C(=O)O)C(c1ccccc1)c1ccccc1; γGlu = O=C(O)[C@H](CCC(=O)[*:2])N[*:1]; Stearoyl = CCCCCCCCCCCCCCCCCC(=O)*; αMeF = C[C@](N)(Cc1ccccc1)C(=O)O; Nle = CCCC[C@H](N)C(=O)O; PEG2 = NCCOCCOCCC(=O)O; Aib = CC(C)(N)C(=O)O

How the values were obtained:
[1] = Mouse acute food intake study; type: in vivo; details: male C57Bl/6 mice, s.c., cumulative food intake at 24 hr vs vehicle
How it was run: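 Single-housed male C57Bl/6 mice (8-9 weeks on arrival), chow-fed, acclimated and sham-dosed ≥2 times, were fasted 6-8 h, then given vehicle or peptide subcutaneously at 5 mL/kg 1-2 h before lights out. Food intake was recorded automatically over 48 h and analysed as cumulative intake.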

[2] = Proteolytic resistance to FasSSIF/Pancreatin; type: in vitro ADME; details: simulated intestinal fluid
Method: A fresh suspension of FasSSIF/P (Fasted-State Simulated Intestinal Fluid+USP Pancreatin®) was prepared according to that described by Galia, Nicolaides, Hörter, Löbenberg, Reppas and Dressman: Pharm. Res. 15 (1998) 698-705, and USP XL requirements. The resulting preparation was used immediately without storage.
Peptide for evaluation (1.0 mg) was dissolved in pre-warmed FasSSIF without Pancreatin® (200 μL). To this fresh FasSSIF/Pancreatin® (100 μL) was added to initiate potential proteolysis. Following momentary vortexing of the reaction tube the mixture was incubated at 37° C. in a thermostatic water bath for the duration of the experiment. 25 μL aliquot of the co-incubated peptide-enzyme mixture was periodically withdrawn (t=0, 5, 10 15 and 30 min) and quenched immediately by addition to a solution of 10% TFA in 1:1 water/acetonitrile (75 μL) to arrest proteolytic activity. Quenched samples were centrifuged (7800 RPM, 3 mins) to pellet solids and 10 μL aliquots of the supernatant solution were analyzed using analytical RP-HPLC as follows: Analytical RP-HPLC method: Agilent Polaris C8-A column (4.6×100 mm, 3 micron) eluted with a linear binary gradient of 10-90% MeCN (0.1% TFA v/v) in water (0.1% TFA v/v) over either 10 or 15 mins at 1.5 mL min^−1 at 40° C. with detection by UV absorption at 210 nm. Manual integration (AUC) allowed estimation of remaining intact peptide over the time course of the experiment.

[3] = target: human GLP-1 receptor (hGLP-1R) (Homo sapiens, UniProt P43220); experiment: cAMP production (HTRF) in CHO cells expressing hGLP-1R; type: cell-based; parameters: expressed in transfected cells; details: for EC50: Table 6, peptides modified at position 17, cAMP in CHO hGLP-1R cells, geometric mean, read-out: hGLP-1R EC50; for % Relative Potency Ratio: Table 6, % GLP-1R activity relative to GLP-1 / % GlucR activity relative to glucagon
How it was run: (§1)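 Read-out: HTRF cAMP (anti-cAMP cryptate donor, cAMP-d2 acceptor in conjugate/lysis buffer), converted to % Delta F and fitted by 4-parameter logistic for EC50. Cell densities were 1×10^5 cells/mL (hGLP-1R) or 2×10^5 cells/mL (hGCGR). Stimulation lasted 30 min at room temperature.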

[4] = target: human glucagon receptor (hGCGR) (Homo sapiens, UniProt P47871); experiment: cAMP production (HTRF) in CHO cells expressing hGCGR; type: cell-based; parameters: expressed in transfected cells; details: Table 6, peptides modified at position 17; cAMP in CHO hGCGR cells; geometric mean; read-out: hGluc-R EC50
How it was run: as §1

[5] = tested on: GLP-1R knockout (KO) mice; experiment: Glucose change in GLP-1R knockout mice; type: in vivo, mouse; details: GLP-1R KO mice, s.c.; for GLP-1R KO % glucose change 120 min: 120 min vs 0 min; for GLP-1R KO % glucose change - 60 min: 60 min vs 0 min
Method: (§2) They acclimated for a minimum of ˜1-2 weeks, and mice were sorted into groups (n=4-8/group) based on body weight. On day of study, mice were fasted briefly for 2 hrs prior to study start. In some studies, mice were pre-treated with octreotide (BaChem, 10 mg/kg) at 30 minutes prior to peptide injection. Glucose was measured via glucometer at various timepoints including-30 min (prior to octreotide when used in studies), 0 min (before peptide dose), 30, 60, 120, 180, 240, and 360 minutes. Since these studies are acute in nature, mice were re-used for multiple studies (no more than 3) and always allowed at least a minimum wash-out period of 1 week.

wildtype (WT) mice = experiment: Glucose change in wildtype mice; type: in vivo, mouse; details: s.c.; for WT % glucose change 120 min: 120 min vs 0 min; for WT % glucose change 60 min: 60 min vs 0 min
Method: as §2, with “GLP-1R knockout (KO) and wildtype (WT) mice at 8-14 weeks of age were singly housed on standard chow diet (Envigo, 2918) and automatic water. They” for “They”

[6] = 3 nmol/kg, no somatostatin pretreatment
[7] = 10 nmol/kg, somatostatin pretreatment (octreotide) 30 min prior to cpd
[8] = 30 nmol/kg, somatostatin pretreatment (octreotide) 30 min prior to cpd
[9] = 10 nmol/kg, no somatostatin pretreatment
[10] = 30 nmol/kg, no somatostatin pretreatment

human GLP-1 receptor (hGLP-1R), sequence (P43220 24-463): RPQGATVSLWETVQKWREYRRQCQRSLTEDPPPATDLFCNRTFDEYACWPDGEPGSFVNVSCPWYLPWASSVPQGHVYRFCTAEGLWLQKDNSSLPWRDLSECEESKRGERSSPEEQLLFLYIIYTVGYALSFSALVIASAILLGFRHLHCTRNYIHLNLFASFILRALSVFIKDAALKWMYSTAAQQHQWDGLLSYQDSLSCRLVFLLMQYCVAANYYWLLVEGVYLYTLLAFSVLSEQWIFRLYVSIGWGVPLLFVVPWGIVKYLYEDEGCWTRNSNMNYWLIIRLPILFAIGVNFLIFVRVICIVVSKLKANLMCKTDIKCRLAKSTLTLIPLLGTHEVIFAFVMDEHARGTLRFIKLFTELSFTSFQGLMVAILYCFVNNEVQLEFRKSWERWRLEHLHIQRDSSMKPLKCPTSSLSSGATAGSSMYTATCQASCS
human glucagon receptor (hGCGR), sequence (P47871 26-477): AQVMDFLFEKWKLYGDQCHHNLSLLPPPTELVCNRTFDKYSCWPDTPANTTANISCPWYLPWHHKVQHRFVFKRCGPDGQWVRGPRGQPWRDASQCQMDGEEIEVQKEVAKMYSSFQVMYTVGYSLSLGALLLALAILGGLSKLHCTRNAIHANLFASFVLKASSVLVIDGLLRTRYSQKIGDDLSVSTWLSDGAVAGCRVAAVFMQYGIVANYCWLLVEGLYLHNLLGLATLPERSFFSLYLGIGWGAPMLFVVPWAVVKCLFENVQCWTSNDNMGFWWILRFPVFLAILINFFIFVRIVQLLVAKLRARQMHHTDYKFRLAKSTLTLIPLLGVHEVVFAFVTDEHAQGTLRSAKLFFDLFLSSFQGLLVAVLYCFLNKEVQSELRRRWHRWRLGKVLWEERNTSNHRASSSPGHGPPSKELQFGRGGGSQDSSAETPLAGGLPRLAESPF

remaining at 0.5 h, 3.3 mg/mL [2]: 98%
EC50 [3]: 4.9 pM
% Relative Potency Ratio [3]: 3.5
EC50 [4]: 8.74 pM
SMILES: CCCCCCCCCCCCCCCCCC(=O)N[C@@H](CCC(=O)N[C@@H](CCC(=O)NCCOCCOCCC(=O)NCCOCCOCCC(=O)NCCCC[C@H](NC(=O)[C@H](CO)NC(=O)[C@H](CC(=O)O)NC(=O)[C@H](CC(C)C)NC(=O)[C@@H](NC(=O)[C@H](CCCCN)NC(=O)[C@H](CO)NC(=O)[C@@H](NC(=O)[C@H](CC(=O)O)NC(=O)[C@H](CO)NC(=O)[C@@H](NC(=O)[C@](C)(Cc1ccccc1)NC(=O)[C@H](CO)NC(=O)CNC(=O)[C@H](CCC(N)=O)NC(=O)[C@H](CO)NC(=O)[C@@H](N)Cc1c[nH]cn1)[C@@H](C)O)C(C)C)C(c1ccccc1)c1ccccc1)C(=O)N[C@@H](C)C(=O)N[C@@H](C)C(=O)N[C@@H](CCC(N)=O)C(=O)N[C@@H](CC(=O)O)C(=O)N[C@@](C)(Cc1ccccc1)C(=O)N[C@H](C(=O)N[C@@H](CCC(=O)O)C(=O)NC(C)(C)C(=O)N[C@H](C(=O)N[C@H](C(=O)N[C@@H](CC(N)=O)C(=O)N[C@H](C(N)=O)[C@@H](C)O)[C@@H](C)CC)[C@@H](C)CC)C(C)C)C(=O)O)C(=O)O [Peptide 50] (H-HSQGS[αMeF]TSDVSK[Dip]LDSK([PEG2-PEG2-γGlu-γGlu-Stearoyl])AAQD[αMeF]VE[Aib]IINT-NH2)
24 hr % Vehicle Food Intake ([1]; dose 10 nmol/kg): 78.5%

% Relative Potency Ratio [3]: 11.1
SMILES: CCCCCCCCCCCCCCCCCC(=O)N[C@@H](CCC(=O)N[C@@H](CCC(=O)NCCOCCOCCC(=O)NCCOCCOCCC(=O)NCCCC[C@H](NC(=O)[C@H](CO)NC(=O)[C@H](CC(=O)O)NC(=O)[C@H](CC(C)C)NC(=O)[C@](C)(Cc1ccccc1)NC(=O)[C@H](CCCCN)NC(=O)[C@H](CO)NC(=O)[C@@H](NC(=O)[C@H](CC(=O)O)NC(=O)[C@H](CO)NC(=O)[C@@H](NC(=O)[C@H](Cc1ccccc1)NC(=O)[C@@H](NC(=O)CNC(=O)[C@H](CCC(N)=O)NC(=O)C(C)(C)NC(=O)[C@@H](N)Cc1c[nH]cn1)[C@@H](C)O)[C@@H](C)O)C(C)C)C(=O)N[C@@H](CCCNC(=N)N)C(=O)N[C@@H](C)C(=O)N[C@@H](CCC(N)=O)C(=O)N[C@@H](CC(=O)O)C(=O)N[C@@](C)(Cc1ccccc1)C(=O)N[C@H](C(=O)N[C@@H](CCC(N)=O)C(=O)NC(C)(C)C(=O)N[C@@H](CC(C)C)C(=O)N[C@@H](CCCC)C(=O)N[C@@H](CCC(=O)O)C(=O)N[C@H](C(N)=O)[C@@H](C)O)C(C)C)C(=O)O)C(=O)O [Peptide 69] (H-H[Aib]QGTFTSDVSK[αMeF]LDSK([PEG2-PEG2-γGlu-γGlu-Stearoyl])RAQD[αMeF]VQ[Aib]L[Nle]ET-NH2; N-terminus assumed)
24 hr % Vehicle Food Intake ([1]; dose 10 nmol/kg): 74.3%
GLP-1R KO % glucose change 120 min [5, 6]: 17.6%
WT % glucose change 120 min (wildtype (WT) mice; [6]): −27.2%

EC50 [3]: 1.05 pM
% Relative Potency Ratio [3]: 24.3
EC50 [4]: 13 pM
SMILES: CCCCCCCCCCCCCCCCCC(=O)N[C@@H](CCC(=O)N[C@@H](CCC(=O)NCCOCCOCCC(=O)NCCOCCOCCC(=O)NCCCC[C@H](NC(=O)[C@H](CO)NC(=O)[C@H](CC(=O)O)NC(=O)[C@H](CC(C)C)NC(=O)C(C)(C)NC(=O)[C@H](CCCCN)NC(=O)[C@H](CO)NC(=O)[C@@H](NC(=O)[C@H](CC(=O)O)NC(=O)[C@H](CO)NC(=O)[C@@H](NC(=O)[C@](C)(Cc1ccccc1)NC(=O)[C@H](CO)NC(=O)CNC(=O)[C@H](CCC(N)=O)NC(=O)[C@H](CO)NC(=O)[C@@H](N)Cc1c[nH]cn1)[C@@H](C)O)C(C)C)C(=O)N[C@@H](C)C(=O)N[C@@H](C)C(=O)N[C@@H](CCC(N)=O)C(=O)N[C@@H](CC(=O)O)C(=O)N[C@@](C)(Cc1ccccc1)C(=O)N[C@H](C(=O)N[C@@H](CCC(N)=O)C(=O)NC(C)(C)C(=O)N[C@H](C(=O)N[C@@H](C)C(=O)N[C@@H](CC(N)=O)C(N)=O)[C@@H](C)CC)C(C)C)C(=O)O)C(=O)O [Peptide 97] (H-HSQGS[αMeF]TSDVSK[Aib]LDSK([PEG2-PEG2-γGlu-γGlu-Stearoyl])AAQD[αMeF]VQ[Aib]IAN-NH2; N-terminus assumed)
GLP-1R KO % glucose change 120 min [5, 7]: 91.1%
GLP-1R KO % glucose change 120 min [5, 8]: 150.8%
WT % glucose change 120 min (wildtype (WT) mice; [7]): −41.9%
WT % glucose change 120 min (wildtype (WT) mice; [8]): −14.7%

SMILES: CC(C)C[C@H](NC(=O)[C@H](Cc1c[nH]c2ccccc12)NC(=O)[C@H](CCC(N)=O)NC(=O)[C@@H](NC(=O)[C@H](Cc1ccccc1)NC(=O)[C@H](CC(=O)O)NC(=O)[C@H](CCCNC(=N)N)NC(=O)[C@H](C)NC(=O)[C@H](CCCNC(=N)N)NC(=O)[C@H](CCCCNC(=O)COCCOCCNC(=O)COCCOCCNC(=O)CC[C@H](NC(=O)CCCCCCCCCCCCCCCCCCC(=O)O)C(=O)O)NC(=O)[C@@H](NC(=O)[C@H](CC(=O)O)NC(=O)[C@H](CC(C)C)NC(=O)[C@](C)(Cc1ccccc1)NC(=O)[C@H](CCCCN)NC(=O)[C@H](CO)NC(=O)[C@@H](NC(=O)[C@H](CC(=O)O)NC(=O)[C@H](CO)NC(=O)[C@@H](NC(=O)[C@H](Cc1ccccc1)NC(=O)[C@@H](NC(=O)CNC(=O)[C@H](CCC(N)=O)NC(=O)C(C)(C)NC(=O)[C@@H](N)Cc1c[nH]cn1)[C@@H](C)O)[C@@H](C)O)C(C)C)[C@@H](C)O)C(C)C)C(=O)N[C@@H](CC(C)C)C(=O)N[C@@H](CCC(=O)O)C(=O)NC(C)(C)C(=O)NCC(=O)O [Peptide 195, H-Aib-Q-G-T-F-T-S-D-V—S-K-αMePhe-L-D-T-K-R-A-R-D-F-V-Q-W-L-L-E-Aib-G-acid]
24 hr % Vehicle Food Intake ([1]; dose 1 nmol/kg): 102.1%
24 hr % Vehicle Food Intake ([1]; dose 3 nmol/kg): 84.0%
24 hr % Vehicle Food Intake ([1]; dose 10 nmol/kg): 58.2% and 49.9%
GLP-1R KO % glucose change - 60 min [5, 9]: 35.3%
GLP-1R KO % glucose change - 60 min [5, 10]: 48.0%
WT % glucose change 60 min (wildtype (WT) mice; [9]): 1.4%
WT % glucose change 60 min (wildtype (WT) mice; [10]): −17.0%
